Assay results published in paper PMC5971037, “Synthesis and evaluation of antimicrobial, antitubercular and anticancer activities of 2-(1-benzoyl-1H-benzo[d]imidazol-2-ylthio)-N-substituted acetamides” (Chemistry Central Journal, 2018).
Values after ≈ are worked out from the molar mass of the structure shown. Where two headings read alike, the source gives them in different places.

Tests used:
[1] = test system: HCT116 (human colorectal) cell line; test: Sulforhodamine-B (SRB) cytotoxicity assay; type: cell-based
[2] = test system: MCF7 (human breast cancer) cell line; test: Sulforhodamine-B (SRB) cytotoxicity assay; type: cell-based
E. coli [3] = test: Tube dilution MIC; conditions: Escherichia coli, 24 h, read-out: MIC E. coli
[4] = test system: M. tuberculosis H37Rv (NCFT/TB/537); test: Well diffusion susceptibility test (zone of inhibition); type: cell-based; conditions: Mycobacterium tuberculosis, 672 h, read-out: Diameter of zone of inhibition against H37Rv (NCFT/TB/537), wells of 8 mm, 50 µg/ml test compound, 25 µg/ml standard drug, 4 weeks, NA = no activity
[5] = In vivo LD50, ED50 and toxic dose in mice models; conditions: mouse, dose that killed 50% of the mice population within the group
Experimental: The LD50 and ED50 were determined for the active compounds in mice models infected with Mycobacterium H37Rv (Table 4). […] Thus, ED50 of 1.34 mg/kg was considered safe for each of the compounds. It was observed that this dose was effective and safe for mice in different groups before infecting the mice models with specific TB bacteria as no mortality of any single animal was recorded.
The LD50 (lethal dose) and ED50 (optimum/effective dose) doses were determined for the active compounds in mice models infected with Mycobacterium H37Rv via ethical permission no., NCFT/EC/16/2313 assigned to Collaborative Research Group (CRG), NCFT, New Delhi, India.

B. cereus [6] = test: Tube dilution MIC; conditions: Bacillus cereus, 24 h, read-out: MIC B. cereus
C. albicans [7] = test: microbe, parasite or virus in culture; conditions: Candida albicans, 48 h, read-out: MIC C. albicans
M. tuberculosis H37Rv [8] = test: Minimum lethal concentration (MLC); type: cell-based; conditions: Mycobacterium tuberculosis, NA = no activity, read-out: MLC against M. tuberculosis H37Rv
A. niger [9] = test: MFC by subculturing; type: cell-based
Experimental: (§1) The minimum bactericidal concentration (MBC) and minimum fungicidal concentration (MFC) of the synthesized benzimidazole derivatives was determined by subculturing 100 µl of culture from each tube that remained clear in MIC determination onto sterilized petri-plates containing fresh agar medium. The petri-plates were incubated and analyzed for microbial growth visually.

C. albicans [10] = test: MFC by subculturing; type: cell-based
Experimental: as §1

B. subtilis [11] = test: MBC by subculturing; type: cell-based
Experimental: as §1

S. aureus [12] = test: MBC by subculturing; type: cell-based; conditions: Staphylococcus aureus
Experimental: as §1

E. coli [13] = test: MBC by subculturing; type: cell-based; conditions: Escherichia coli
Experimental: as §1

S. typhi [14] = test: MBC by subculturing; type: cell-based; conditions: Salmonella enterica, read-out: MBC S. typhi
Experimental: as §1

B. cereus [15] = test: MBC by subculturing; type: cell-based
Experimental: as §1

A. niger [16] = test: microbe, parasite or virus in culture; conditions: Aspergillus niger, 168 h, read-out: MIC A. niger
S. typhi [17] = test: Tube dilution MIC; type: cell-based; conditions: Salmonella enterica, 24 h, read-out: MIC S. typhi
[18] = test system: Gram positive as well as Gram negative bacterial species; test: Tube dilution MIC, bacteria overall; type: cell-based
M. tuberculosis H37Rv [19] = test: MIC by microplate alamar blue assay; type: cell-based; conditions: Mycobacterium tuberculosis, NA = no activity, read-out: MIC against M. tuberculosis H37Rv
[20] = target: mycobacterial isocitrate lyase (Mycobacterium tuberculosis, UniProt P9WKK7); test: Mycobacterial isocitrate lyase (ICL) assay; type: biochemical, M. tuberculosis H37Rv; conditions: read-out: Percent inhibition of enzyme, M. ICL activity
Experimental: The compounds found potent in in vivo evaluation were assayed for inhibition of mycobacterial enzymes viz., isocitrate lyase, pantothenate synthetase and chorismate mutase.
Isocitrate lyase activity was assayed according to the protocol reported by Dixon and Kornberg (glyoxylate phenyl hydrazone formation) at 10 μM of the compounds.

B. subtilis [21] = test: Tube dilution MIC; conditions: Bacillus subtilis, 24 h, read-out: MIC B. subtilis
S. aureus [22] = test: Tube dilution MIC; conditions: Staphylococcus aureus, 24 h, read-out: MIC S. aureus

Chain of mycobacterial isocitrate lyase (P9WKK7 whole entry): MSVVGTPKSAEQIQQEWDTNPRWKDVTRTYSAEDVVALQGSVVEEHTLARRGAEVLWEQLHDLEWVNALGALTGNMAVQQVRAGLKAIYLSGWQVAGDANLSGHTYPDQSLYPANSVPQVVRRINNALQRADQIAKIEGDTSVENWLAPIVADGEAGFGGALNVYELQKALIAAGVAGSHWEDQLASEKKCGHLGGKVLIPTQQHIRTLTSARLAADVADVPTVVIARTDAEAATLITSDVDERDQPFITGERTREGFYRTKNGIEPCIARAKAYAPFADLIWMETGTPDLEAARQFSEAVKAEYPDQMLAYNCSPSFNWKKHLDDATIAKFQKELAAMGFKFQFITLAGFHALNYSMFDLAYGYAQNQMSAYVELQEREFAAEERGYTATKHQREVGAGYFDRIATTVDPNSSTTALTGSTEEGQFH

Row | SMILES | MIC (E. coli [3]) [µM] | zone of inhibition at 50 µg/mL [4] [mm] | MIC (B. cereus [6]) [µM] | MIC (C. albicans [7]) [µM] | MBC (M. tuberculosis H37Rv [8]) [µg/mL] | MBC (S. aureus [12]) [µg/mL] | MBC (E. coli [13]) [µg/mL] | MBC (S. typhi [14]) [µg/mL] | MIC (A. niger [16]) [µM] | MIC (S. typhi [17]) [µM] | MIC against Gram positive as well as Gram negative bacterial species [18] [µM/ml] | MIC (M. tuberculosis H37Rv [19]) [µg/mL] | MIC (B. subtilis [21]) [µM] | MIC (S. aureus [22]) [µM] | further results
1 | O=C(CSc1nc2ccccc2n1C(=O)c1ccccc1)Nc1cccc(Br)c1 [Compound 8, 2-(1-Benzoyl-1H-benzo[d]imidazol-2-ylthio)-N-(3-bromophenyl)acetamide] | 27 (≈ 12.6 µg/mL) | > 20 | 27 (≈ 12.6 µg/mL) | 13 (≈ 6.06 µg/mL) | 25 (≈ 53.6 µM) | 50 (≈ 107 µM) | > 50 | > 50 | 27 (≈ 12.6 µg/mL) | 27 (≈ 12.6 µg/mL) | 0.027 | 12.5 (≈ 26.8 µM) | 27 (≈ 12.6 µg/mL) | 27 (≈ 12.6 µg/mL) | IC50 ([1]; HCT-116, read-out: IC50 HCT116): 107 µM; IC50 ([2]; MCF7, read-out: IC50 MCF7): 68.6 µM; LD50 [5]: 1.88 mg/kg; MFC (A. niger [9]; Aspergillus niger, read-out: MFC A. niger): > 50 µg/mL; MFC (C. albicans [10]; Candida albicans, read-out: MFC C. albicans): 50 µg/mL (≈ 107 µM); MBC (B. subtilis [11]; Bacillus subtilis, read-out: MBC B. subtilis): > 50 µg/mL; MBC (B. cereus [15]; Bacillus cereus, read-out: MBC B. cereus): > 50 µg/mL; inhibition at 10 µM [20]: 59.5%
2 | O=C(CSc1nc2ccccc2n1C(=O)c1ccccc1)Nc1ccc(Cl)cc1[N+](=O)[O-] [Compound 11, 2-(1-Benzoyl-1H-benzo[d]imidazol-2-ylthio)-N-(4-chloro-2-nitrophenyl)acetamide] | 27 (≈ 12.6 µg/mL) | 10 | 27 (≈ 12.6 µg/mL) | 13 (≈ 6.07 µg/mL) | 28 (≈ 60 µM) | 50 (≈ 107 µM) | 50 (≈ 107 µM) | 50 (≈ 107 µM) | 27 (≈ 12.6 µg/mL) | 27 (≈ 12.6 µg/mL) | 0.027 | 15 (≈ 32.1 µM) | 27 (≈ 12.6 µg/mL) | 27 (≈ 12.6 µg/mL) | IC50 ([1]; HCT-116, SRB assay, HCT116 cell line, read-out: IC50 HCT116): 23.6 µM; IC50 ([2]; SRB assay, MCF7 cell line, read-out: IC50 MCF7): 161 µM; MFC (A. niger [9]; Aspergillus niger; read-out: MFC A. niger): > 50 µg/mL; MFC (C. albicans [10]; Candida albicans; read-out: MFC C. albicans): > 50 µg/mL; MBC (B. subtilis [11]; Bacillus subtilis; read-out: MBC B. subtilis): 50 µg/mL (≈ 107 µM); MBC (B. cereus [15]; Bacillus cereus; read-out: MBC B. cereus): > 50 µg/mL
